Here are results for 26 substances from the OligoGym collection.

This data set has as its target UBE3A-ATS. As to the kind of experiment: mouse, dose not given. The settings on record: ASO.

HELM strings list units from the 5' end as sugar, base in round brackets, then linkage (d deoxyribose, r ribose, m 2'-O-methyl, p phosphodiester). Strings are as the collection lists them; they lack the last nucleoside at the 3' end of the tested compound. [moe] = 2'-O-(2-methoxyethyl) (MOE); [sp] = phosphorothioate linkage; [m5C] = 5-methylcytosine

The substance “RNA1{[moe](G)[sp].[moe](G)p.[moe](T)p.[moe](A)p.[moe](G)p.d([m5C])[sp].d([m5C])[sp].d([m5C])[sp].d([m5C])[sp].d(A)[sp].d(A)[sp].d(T)[sp].d(A)[sp].d([m5C])[sp].d(A)[sp].[moe](G)p.[moe](A)p.[moe](T)[sp].[moe](T)}$$$$ (last 3' nucleoside missing)” displayed a 3 h FOB score of 1 score 0-7.
The same measure for “RNA1{[moe](T)[sp].[moe](G)p.[moe](A)p.[moe](T)[sp].d([m5C])[sp].d(A)[sp].d([m5C])[sp].d(A)[sp].d(T)[sp].d(T)[sp].d(A)[sp].d([m5C])[sp].[moe]([m5C])p.[moe]([m5C])p.[moe](A)p.[moe](T)[sp].[moe]([m5C])}$$$$ (last 3' nucleoside missing)”: 0 score 0-7.
The figure for “RNA1{[moe](A)[sp].[moe](G)p.[moe](A)p.[moe](G)p.[moe](G)p.d(A)[sp].d(T)[sp].d(T)[sp].d(T)[sp].d(A)[sp].d(G)[sp].d(A)[sp].d(G)[sp].d(T)[sp].d(T)[sp].[moe](A)p.[moe](A)p.[moe](A)[sp].[moe](A)}$$$$ (last 3' nucleoside missing)” is 2.8 score 0-7; for “RNA1{[moe]([m5C])[sp].[moe](G)p.[moe]([m5C])p.[moe](A)p.[moe](A)[sp].d(T)[sp].d(G)[sp].d(T)[sp].d(A)[sp].d(T)[sp].d([m5C])[sp].d(A)[sp].d(G)[sp].[moe](G)p.[moe]([m5C])p.[moe](A)[sp].[moe](A)}$$$$ (last 3' nucleoside missing)” it is 2 score 0-7.
The same measure for “RNA1{[moe](A)[sp].[moe]([m5C])p.[moe](T)p.[moe](G)p.[moe]([m5C])p.d(T)[sp].d(T)[sp].d([m5C])[sp].d(A)[sp].d([m5C])[sp].d([m5C])[sp].d(A)[sp].d(T)[sp].d(T)[sp].d(T)[sp].[moe](T)p.[moe](G)p.[moe](A)[sp].[moe]([m5C])}$$$$ (last 3' nucleoside missing)”: 1.7 score 0-7.
Substance “RNA1{[moe](T)[sp].[moe](G)p.[moe](T)p.[moe](G)p.[moe]([m5C])p.[moe](A)p.d(T)[sp].d(A)[sp].d([m5C])[sp].d([m5C])[sp].d([m5C])[sp].d(A)[sp].d(G)[sp].d(G)[sp].d(G)[sp].d(T)[sp].[moe](A)p.[moe](G)[sp].[moe](G)}$$$$ (last 3' nucleoside missing)” gave a 3 h FOB score of 0 score 0-7.
The same measure for “RNA1{[moe]([m5C])[sp].[moe](G)p.[moe](T)p.[moe](G)p.[moe](A)[sp].d(G)[sp].d([m5C])[sp].d(T)[sp].d(A)[sp].d(T)[sp].d([m5C])[sp].d(T)[sp].d(G)[sp].[moe](T)p.[moe](A)p.[moe]([m5C])[sp].[moe](A)}$$$$ (last 3' nucleoside missing)”: 1.3 score 0-7; for “RNA1{[moe](G)[sp].[moe]([m5C])p.[moe](T)p.[moe](T)p.[moe]([m5C])p.[moe](A)p.d([m5C])[sp].d([m5C])[sp].d(A)[sp].d(T)[sp].d(T)[sp].d(T)[sp].d(T)[sp].d(G)[sp].d(A)[sp].d([m5C])[sp].[moe]([m5C])p.[moe](T)[sp].[moe](T)}$$$$ (last 3' nucleoside missing)”: 1 score 0-7; for “RNA1{[moe]([m5C])[sp].[moe](T)p.[moe]([m5C])p.[moe](A)p.d(G)[sp].d(T)[sp].d(T)[sp].d(A)[sp].d(G)[sp].d(G)[sp].d(T)[sp].d(T)[sp].d(A)[sp].d(G)[sp].[moe](T)p.[moe](G)p.[moe]([m5C])p.[moe](A)[sp].[moe]([m5C])}$$$$ (last 3' nucleoside missing)”: 4 score 0-7.
With “RNA1{[moe](T)[sp].[moe](T)p.[moe](T)p.[moe]([m5C])p.[moe](A)p.d(T)[sp].d([m5C])[sp].d(A)[sp].d(G)[sp].d(T)[sp].d(T)[sp].d(A)[sp].d(G)[sp].d(T)[sp].d([m5C])[sp].[moe](A)p.[moe](G)p.[moe](G)[sp].[moe](T)}$$$$ (last 3' nucleoside missing)”, the 3 h FOB score was found to be 2 score 0-7.
The figure for “RNA1{[moe](T)[sp].[moe](G)p.[moe](G)p.[moe]([m5C])p.[moe](T)p.d(T)[sp].d(T)[sp].d(A)[sp].d(T)[sp].d(A)[sp].d([m5C])[sp].d(T)[sp].d(T)[sp].d(T)[sp].d(A)[sp].[moe]([m5C])p.[moe]([m5C])p.[moe]([m5C])[sp].[moe](A)}$$$$ (last 3' nucleoside missing)” is 0.7 score 0-7; for “RNA1{[moe](G)[sp].[moe](T)p.[moe](G)p.[moe](T)p.[moe](T)p.[moe](T)p.d(T)[sp].d(T)[sp].d([m5C])[sp].d([m5C])[sp].d(A)[sp].d(T)[sp].d(T)[sp].d(T)[sp].d(T)[sp].d(T)[sp].[moe]([m5C])p.[moe](T)[sp].[moe]([m5C])}$$$$ (last 3' nucleoside missing)” it is 0 score 0-7; for “RNA1{[moe](G)[sp].[moe]([m5C])p.[moe](T)p.[moe]([m5C])p.[moe](A)[sp].d(G)[sp].d(T)[sp].d(T)[sp].d(A)[sp].d(G)[sp].d(G)[sp].d(T)[sp].d(T)[sp].[moe](A)p.[moe](G)p.[moe](T)[sp].[moe](G)}$$$$ (last 3' nucleoside missing)” it is 2.3 score 0-7.
The figure for “RNA1{[moe](T)[sp].[moe](G)p.[moe](A)p.[moe](T)p.[moe](A)p.d(G)[sp].d(A)[sp].d(T)[sp].d(A)[sp].d([m5C])[sp].d(T)[sp].d(T)[sp].d(G)[sp].d(T)[sp].d(A)[sp].[moe](T)p.[moe](T)p.[moe](A)[sp].[moe](G)}$$$$ (last 3' nucleoside missing)” is 3.8 score 0-7; for “RNA1{[moe](T)[sp].[moe]([m5C])p.[moe](A)p.[moe](T)[sp].d([m5C])[sp].d(T)[sp].d([m5C])[sp].d(G)[sp].d(G)[sp].d(G)[sp].d(T)[sp].d(A)[sp].[moe](T)p.[moe](A)p.[moe](T)p.[moe](A)[sp].[moe](A)}$$$$ (last 3' nucleoside missing)” it is 5.3 score 0-7; for “RNA1{[moe]([m5C])[sp].[moe](T)p.[moe](A)p.[moe](T)p.[moe]([m5C])p.d(A)[sp].d(A)[sp].d(G)[sp].d(G)[sp].d([m5C])[sp].d(T)[sp].d(G)[sp].d(T)[sp].d(T)[sp].d(A)[sp].[moe](T)p.[moe](T)p.[moe](G)[sp].[moe](G)}$$$$ (last 3' nucleoside missing)” it is 4 score 0-7.
The figure for “RNA1{[moe](T)[sp].[moe]([m5C])p.[moe]([m5C])p.[moe]([m5C])p.[moe](A)p.d(T)[sp].d(T)[sp].d([m5C])[sp].d(A)[sp].d(G)[sp].d([m5C])[sp].d(A)[sp].d([m5C])[sp].d(T)[sp].d(T)[sp].[moe](A)p.[moe](G)p.[moe](G)[sp].[moe](T)}$$$$ (last 3' nucleoside missing)” is 3 score 0-7; for “RNA1{[moe](T)[sp].[moe](T)p.[moe](A)p.[moe](G)p.[moe](G)p.d(T)[sp].d([m5C])[sp].d(A)[sp].d(A)[sp].d([m5C])[sp].d([m5C])[sp].d(A)[sp].d(A)[sp].d(T)[sp].d(T)[sp].[moe](T)p.[moe](G)p.[moe]([m5C])[sp].[moe](T)}$$$$ (last 3' nucleoside missing)” it is 0 score 0-7.
In the case of “RNA1{[moe](G)[sp].[moe](A)p.[moe](G)p.[moe](T)p.[moe](A)p.d(G)[sp].d(T)[sp].d([m5C])[sp].d(T)[sp].d(A)[sp].d(T)[sp].d(T)[sp].d(G)[sp].d(G)[sp].d(T)[sp].[moe](G)p.[moe](T)p.[moe](T)[sp].[moe]([m5C])}$$$$ (last 3' nucleoside missing)”, the 3 h FOB score stood at 5.5 score 0-7.
The same measure for “RNA1{[moe]([m5C])[sp].[moe]([m5C])p.[moe](A)p.[moe](A)p.[moe]([m5C])p.d(T)[sp].d(T)[sp].d([m5C])[sp].d(A)[sp].d(T)[sp].d([m5C])[sp].d(A)[sp].d(A)[sp].d(T)[sp].d(A)[sp].[moe](T)p.[moe](T)p.[moe](T)[sp].[moe]([m5C])}$$$$ (last 3' nucleoside missing)”: 0 score 0-7; for “RNA1{[moe](G)[sp].[moe](T)p.[moe]([m5C])p.[moe](A)p.[moe](A)p.d([m5C])[sp].d([m5C])[sp].d(A)[sp].d(A)[sp].d(T)[sp].d(T)[sp].d(T)[sp].d(G)[sp].d([m5C])[sp].d(T)[sp].[moe](A)p.[moe](T)p.[moe](T)[sp].[moe]([m5C])}$$$$ (last 3' nucleoside missing)”: 1 score 0-7; for “RNA1{[moe]([m5C])[sp].[moe](T)p.[moe](T)p.[moe](A)p.[moe](T)p.d(G)[sp].d(T)[sp].d(A)[sp].d(G)[sp].d([m5C])[sp].d(T)[sp].d([m5C])[sp].d(A)[sp].d(G)[sp].d([m5C])[sp].[moe](T)p.[moe]([m5C])p.[moe](A)[sp].[moe](A)}$$$$ (last 3' nucleoside missing)”: 2 score 0-7.
The same measure for “RNA1{[moe](A)[sp].[moe](T)p.[moe](G)p.[moe](A)p.[moe](T)p.d([m5C])[sp].d(A)[sp].d(T)[sp].d(A)[sp].d([m5C])[sp].d(T)[sp].d(G)[sp].d(G)[sp].d(A)[sp].d(G)[sp].[moe]([m5C])p.[moe]([m5C])p.[moe](A)[sp].[moe](G)}$$$$ (last 3' nucleoside missing)”: 5.8 score 0-7; for “RNA1{[moe](T)[sp].[moe](G)p.[moe](T)p.[moe](G)p.d([m5C])[sp].d(A)[sp].d(T)[sp].d(A)[sp].d([m5C])[sp].d([m5C])[sp].d([m5C])[sp].d(A)[sp].d(G)[sp].d(G)[sp].[moe](G)p.[moe](T)p.[moe](A)p.[moe](G)[sp].[moe](G)}$$$$ (last 3' nucleoside missing)”: 1 score 0-7; for “RNA1{[moe](A)[sp].[moe](A)p.[moe](A)p.[moe](A)p.[moe](T)p.d(A)[sp].d([m5C])[sp].d([m5C])[sp].d(A)[sp].d([m5C])[sp].d(A)[sp].d(A)[sp].d(A)[sp].d(G)[sp].d(A)[sp].[moe](T)p.[moe](A)p.[moe](G)[sp].[moe](G)}$$$$ (last 3' nucleoside missing)”: 2.5 score 0-7.
The figure for “RNA1{[moe](T)[sp].[moe]([m5C])p.[moe](A)p.[moe](G)p.[moe]([m5C])p.d(A)[sp].d([m5C])[sp].d(T)[sp].d(T)[sp].d(A)[sp].d(G)[sp].d(G)[sp].d(T)[sp].d(A)[sp].d(G)[sp].[moe](T)p.[moe](T)p.[moe]([m5C])[sp].[moe](A)}$$$$ (last 3' nucleoside missing)” is 5 score 0-7.
